From patent publication US8476196B2, “Control of harmful algal blooms by induction of programmed cell death” (University of South Florida, priority 2009, dated 2013)

Key:
[1] = test system: Karenia brevis (Piney Island A2); assay: K. brevis culture treatment, intact cell counts (light microscope / FlowCam); format: cell-based; conditions: for cell appearance in FlowCam images: 100 μM final concentration, treated flasks
Protocol: The present inventors have determined that NO may be used to trigger cell death in Karenia brevis and potentially other harmful algae. The response to low concentrations occurs within 24 hours and varies with concentration. To describe the dose response, cultures of K. brevis (Piney Island A2) were exposed to varied concentrations of the nitric oxide donor diethylamine NONOate sodium salt hydrate or DEA NONOate (IUPAC name: sodium N-(diethylamino)-N-oxidonitrous amide).
Work described by Chung et al. (2008) employed 500 μM DEA NO to elicit ScDSP-1 expression in Skeletonema costatum. The present inventors sought to determine the low end of the dose response, if any effect, in K. brevis. Trials therefore tested the effect of DEA NONOate concentrations ranging from 100 μM to 0.1 μM. For each trial, K. brevis cultures were grown in L1 media. Cultures were diluted 1:1 from a stock flask into a total volume of 125 mL in 250-mL acid washed and autoclaved flasks. Cultures were allowed to recover for 2-4 days prior to treatment. Immediately prior to treatment, DEA NONOate (Sigma-Aldrich, St. Louis, Mo.) was dissolved from its powdered form in sterile nuclease-free water. The solution was made to a concentration of 1 mg mL^−1. Two trials were performed to delineate responses to different concentrations of NO. In each case, the appropriate volume of DEA NONO solution was added and the cultured swirled by hand gently to mix the solution. Control flasks were also used for each trial; these received only an aliquot of the water used for dissolving DEA NONOate, equal to the largest volume administered to treatment flasks for that trial. At the concentration of 1 mg mL^−1, volumes of DEA NONO solution added ranged from 1.9 mL to 1.9 μL for 100 μM to 0.1 μM final concentrations in culture flasks. Three replicate flasks were used for each concentration and negative controls. Prior to treatment and at each sampling point after treatment, 5 mL of culture were removed for counting. A 1 mL aliquot was imaged/counted on the FlowCam flow-through microscope and the remainder was stained with Lugol's iodine solution and counted by light microscope on a gridded Sedgewick counting slide (1 mm^2 grid size). For slide counting, 50-70 grid squares were counted for each sample. Although counts were obtained for most samples by FlowCam and light microscopy, the light microscope counts were used for recording quantitative data while FlowCam images were used as a record of cell appearances.

[2] = test system: Karenia brevis (Piney Island A2); assay: as above; format: cell-based; conditions: 20 μM final concentration, higher-density cultures, T=2 days, two replicates
[3] = test system: caspase 3; assay: Colorimetric caspase-like enzyme activity in K. brevis, caspase 3; format: cell-based, Karenia brevis
Protocol: (§1) Since caspase activity is a hallmark of PCD, experiments were conducted to examine caspase-like enzyme activity in K. brevis. The activity of enzymes that are similar to caspase-3 and caspase-8 were examined. The assays use a commercially available kit (MBL International, Woburn, Mass.) to measure the protease activity specific to certain amino acid sequence motifs. A short time series was performed to measure upregulation of caspase-like activity due to exposure to NO. NO was produced from the compound DEA-NONOate (use of this is previously described herein). […] Based on these findings, there is at least a 2-3 fold up-regulation of caspase-like activity due to NO exposure at 50-100 micromolar. This provides evidence that K. brevis death due to NO exposure is mediated by PCD pathways in the cells. This activity appears rapidly (within 20 minutes), and can decline rapidly (by 120 minutes). The decline is presumably due to actual death of the cells, since at the 120 minute mark, many cells were already in the process of lysis when viewed microscopically.

[4] = test system: caspase 8; assay: Colorimetric caspase-like enzyme activity in K. brevis, caspase 8; format: cell-based, Karenia brevis
Protocol: as §1

[5] = test system: caspase-like activity; assay: Caspase-like activity in K. brevis, summary statements; format: cell-based, Karenia brevis
Protocol: as §1

[6] = test system: ScDSP-1; conditions: Skeletonema costatum; cited from earlier work
[7] = test system: caspase-like activity; conditions: pretreatment before supplementation of NO donors; cited from earlier work
[8] = Experiment 1, 100 uM NO, 60 min
[9] = Experiment 1, 100 uM NO, 120 min

Question: For `CCN(CC)N([O-])N=O.[Na+]` [DEA NONOate, sodium N-(diethylamino)-N-oxidonitrous amide, reference compound], which “cell appearance in FlowCam images” value [1] is on record?
Answer: Its value is “all particles imaged by the FlowCam resembled the disrupted cells”.

Question: And the “cell appearance in FlowCam images” value ([1]; listed as DEA NONO)?
Answer: The value was “disrupted”.

Question: And the intact cells present ([1]; 100 μM, 1 day post-treatment)?
Answer: Its intact cells present is “no intact cells were observed”.

Question: What about the intact cells present ([1]; 100 μM, 2 days post-treatment) of the same compound?
Answer: The intact cells present was “no intact cells were observed”.

Question: What about the “decrease of average intact cell count from pre-treatment counts” value [2] of the same compound?
Answer: Its value is 98.6%.

Question: For `CC(C)C[C@H](NC(=O)[C@H]1O[C@@H]1C(=O)O)C(=O)NCCCCN=C(N)N` [E-64, L-transepoxysuccinyl-leucylamido-[4-guanidino]butane, reference compound], which “protection against NO-induced mortality” value ([1]; E-64 10 μM added with 20 μM NO) is on record?
Answer: The value was “no protection”.

Question: Which “cell counts of surviving cells (recovery)” value ([1]; 10 μM, T=5 days) does the source give for `[N]=O` [NO, nitric oxide] here?
Answer: The value was “increased to greater than pre-treatment numbers”.

Question: And the intact cells present ([1]; 100 μM, 1 day post-treatment)?
Answer: The intact cells present was “no intact cells were present”.

Question: And the cell death ([1]; 100 μM, 24 hours)?
Answer: The cell death was “complete cell death”.

Question: And the intact cells present ([1]; 100 μM, 2 days post-treatment)?
Answer: Its intact cells present is “no intact cells were present”.

Question: What about the mortality at 10 µM ([1]; Karenia brevis, 10 μM, second trial (FIG. 3), read-out: mortality / reduction of intact cells from pre-treatment numbers) of the same compound?
Answer: The mortality at 10 µM was roughly 50%.

Question: What about the mortality at 20 µM ([1]; Karenia brevis, 20 μM NO (FIG. 4)) of the same compound?
Answer: Its mortality at 20 µM is roughly 50%.

Question: What about the “time in which response to low concentrations occurs” value ([1]; low concentrations) of the same compound?
Answer: Its value is no more than 24 h.

Question: And the “effect on intact cell numbers” value ([1]; lower concentrations, 1 μM or less (0.1 μM, 1 μM))?
Answer: Its value is “no effect”.

Question: What about the “Absorbance of colorimetric caspase cleavage product, caspase 3” value (“Absorbance … caspase 3” for short) [3, 8] of the same compound?
Answer: The value was 0.014.

Question: What about the “Upregulation vs. control (fold), caspase 3” value [3, 8] of the same compound?
Answer: Its value is 14 fold.

Question: And the “Absorbance … caspase 3” value [3, 9]?
Answer: Its value is 0.001.

Question: What about the “Upregulation vs. control (fold), caspase 3” value [3, 9] of the same compound?
Answer: Its value is 1 fold.

Question: And the “Absorbance … caspase 3” value ([3]; Experiment 2, 50 uM NO, 20 min)?
Answer: The value was 0.016.

Question: What about the “Upregulation vs. control (fold), caspase 3” value ([3]; Experiment 2, 50 uM NO, 20 min) of the same compound?
Answer: Its value is 2.7 fold.

Question: What about the “Absorbance … caspase 3” value ([3]; Experiment 2, 50 uM NO, 40 min) of the same compound?
Answer: Its value is 0.016.

Question: And the “Upregulation vs. control (fold), caspase 3” value ([3]; Experiment 2, 50 uM NO, 40 min)?
Answer: The value was 2.7 fold.

Question: And the “Absorbance … caspase 3” value ([3]; Experiment 2, 50 uM NO, 60 min)?
Answer: The value was 0.013.

Question: What about the “Upregulation vs. control (fold), caspase 3” value ([3]; Experiment 2, 50 uM NO, 60 min) of the same compound?
Answer: Its value is 2.2 fold.

Question: What about the “Absorbance of colorimetric caspase cleavage product, caspase 8” value (“Absorbance … caspase 8” for short) [4, 8] of the same compound?
Answer: Its value is 0.017.

Question: What about the “Upregulation vs. control (fold), caspase 8” value [4, 8] of the same compound?
Answer: Its value is 2.4 fold.

Question: What about the “Absorbance … caspase 8” value [4, 9] of the same compound?
Answer: Its value is 0.006.

Question: What about the “Upregulation vs. control (fold), caspase 8” value [4, 9] of the same compound?
Answer: The value was 0.9 fold.

Question: And the “Absorbance … caspase 8” value ([4]; Experiment 2, 50 uM NO, 20 min)?
Answer: Its value is 0.021.

Question: And the “Upregulation vs. control (fold), caspase 8” value ([4]; Experiment 2, 50 uM NO, 20 min)?
Answer: The value was 2.1 fold.

Question: What about the “Absorbance … caspase 8” value ([4]; Experiment 2, 50 uM NO, 40 min) of the same compound?
Answer: Its value is 0.019.

Question: What about the “Upregulation vs. control (fold), caspase 8” value ([4]; Experiment 2, 50 uM NO, 40 min) of the same compound?
Answer: Its value is 1.9 fold.

Question: What about the “Absorbance … caspase 8” value ([4]; Experiment 2, 50 uM NO, 60 min) of the same compound?
Answer: Its value is 0.018.

Question: And the “Upregulation vs. control (fold), caspase 8” value ([4]; Experiment 2, 50 uM NO, 60 min)?
Answer: Its value is 1.8 fold.

Question: What about the “time by which caspase-like activity can decline” value ([5]; NO exposure) of the same compound?
Answer: The value was no more than 120 min.

Question: What about the “time in which caspase-like activity appears” value ([5]; NO exposure) of the same compound?
Answer: The value was no more than 20 min.

Question: And the “up-regulation of caspase-like activity” value ([5]; NO exposure at 50-100 micromolar)?
Answer: Its value is 2-3 fold.

Question: What about the “expression of a death specific protein” value [6] of the same compound?
Answer: The value was “induce expression of a death specific protein”.

Question: For Ac-DEVD-CHO, which “effect on increase in caspase-like activity” value [7] is on record?
Answer: Its value is “prevented increase in caspase-like activity”.
